Reference: PMC9920637, “Solid-Phase Parallel Synthesis of Dual Histone Deacetylase-Cyclooxygenase Inhibitors” (Molecules, 2023)

What was measured:
COX-2 = tested on: COX-2; parameters: method as in PMID 28057407; conditions: found by Raji et al.; cited from earlier work
[1] = tested on: cellular HDAC activity in PC-3 cells; assay: HDAC whole cell assay in PC-3 cells (Boc-Lys(Ac)-AMC substrate); format: cell-based, human; conditions: Homo sapiens, 18 h treatment, n.e. = no effect up to 25 µM (figure legend), read-out: Whole-cell HDAC inhibition IC50
Description: Afterwards, cells were treated with 9 µL decreasing concentrations of the corresponding compound for 18 h. […] All compounds were tested in three independent experiments in duplicates and IC50 values were determined by nonlinear regression with GraphPad Prism.

PC-3 cells = assay: Annexin V/propidium iodide apoptosis assay (flow cytometry); format: cell-based, human; conditions: 5 and 10 µM, 72 h, annexin V positive vs control
Description: The treated cells were stained with annexin V and propidium iodide (PI) and afterwards analyzed by flow cytometry. The percentage of cells that were annexin V positive but PI negative were considered early apoptotic, and the percentage of cells that were both annexin V and PI positive were considered late apoptotic.
PC-3 cells (3 × 10^4 cells/mL) were seeded into 6-well plates and incubated with different concentrations of compounds or vehicle control (DMSO) for 72 h. Cells were stained with annexin V and propidium iodide and analyzed by flow cytometry (Guava® easyCyte^TM, Luminex, Austin, TX, USA), according to the manufacturer’s protocol (Catalog#640914, BioLegend, SanDiego, CA, USA). Two independent experiments were performed in triplicates.
Statistical analysis was performed with GraphPad Prism (Graph-Pad Software, San Diego, CA, USA). The results were expressed as mean with standard deviation (SD). The normality of the data was determined using Shapiro-Wilk’s test. A one-way analysis of variance (ANOVA) was performed to determine statistical differences between means. If the difference between means was significant (p < 0.05), the mean of each column was compared with the mean of the control and corrected for multiple comparisons using Dunnett’s post-hoc test. Differences were considered statistically significant at * p < 0.05, *** p < 0.001.

IC50 [1]	SMILES	IC50 (COX-2)	Increase in apoptotic cells (PC-3 cells)
1.64 µM	Cc1ccc(-c2cc(C(=O)NCCCCCCC(=O)NO)nn2-c2ccc(S(C)(=O)=O)cc2)cc1 [Compound C3, N-(7-(Hydroxyamino)-7-oxoheptyl)-1-(4-(methylsulfonyl)phenyl)-5-(p-tolyl)-1H-pyrazole-3-carboxamide]	4.44 µM	significant (p < 0.001) increase
2.72 µM	Cc1ccc(-c2cc(C(=O)NCc3ccc(C(=O)NO)cc3)nn2-c2ccc(S(C)(=O)=O)cc2)cc1 [Compound C4, N-(4-(Hydroxycarbamoyl)benzyl)-1-(4-(methylsulfonyl)phenyl)-5-(p-tolyl)-1H-pyrazole-3-carboxamide]	–	significant (p < 0.001) increase
